Test results taken from patent publication US7452869B2, “NIP3 family of proteins” (University of Manitoba, priority 2000, dated 2008).
Entries after “also recorded” stand apart in the source; their conditions may differ.

Assays:
BNIP3 [1] = test: western blot of BNIP3 in neonatal cardiac myocytes treated with lactacystin (FIG. 12); format: cell-based; details: hypoxic or normoxic 24 hours
Experimental: Neonatal cardiac myocytes were incubated in hypoxic (+) or normoxic (−) conditions for 24 hours. Cells were treated with lactacystin at the indicated concentrations and lysates harvested for western blotting with anti-BNIP3 antibody. BNIP3 band is indicated with an arrow.

PT pore = test: mitochondrial Dcm (DiOC6), ROS production (HE) and PI staining by flow cytometry in BNIP3-transfected 293T cells; format: cell-based
Experimental: Changes in mitochondrial function were determined by incubating 10 6 293T cells, transiently transfected via the CaP04 method, with either 1 mM JC-1, 40 nM DiOC6, or 2 mM dihydroethidium (HE) (all from Molecular Probes, Inc.) for 30 minutes at 37° C. in Hanks' balanced salt solution (Gibco-BRL). Cells were scored using a FACScalibur flow cytometer (Becton-Dickinson, San Jose, Calif.), and data were analyzed on Celiquest software, version 3.1 (Becton-Dickinson). Controls were performed in the presence or absence of […] mClCCP (Sigma) or an excess of 30% H2 02. For inhibition experiments, cyclosporin A (Sigma) or bongkrekic acid (a gift from J. A. Duine, Delft University, Delft, The Netherlands) was added 2 hours prior to transfection. All cells were harvested 8 hours after transfection and stained with 40 nM DiOC6, 2 mM HE, or 1 mg of propidium iodide (PI) (Sigma) per ml. In all cases, samples were gated to exclude cellular debris.

ventricular myocytes = test: cell viability of ventricular myocytes, calcein acetoxymethyl ester / ethidium homodimer-1; format: cell-based; details: Bongkrekic acid 50 μmol/L
Experimental: Ventricular myocytes were isolated from 1- to 2-day-old Sprague-Dawley rats (University of Manitoba, Winnipeg, Canada) and submitted to primary culture as reported (Kirshenbaum and Schneider, 1995). Myocytes were subjected to hypoxia for 24 hours in an air-tight chamber continually gassed with 95% N2-5% CO2, as previously reported (Moissac et al., 2000; Long et al., 1997; Tanaka et al., 1994). Adult rat hearts (n=3) were excised from adult rats (250 to 300 g) and subjected to global hypoxia for 1 hour on a modified Langendorff perfusion system with buffer continually gassed with 95% N2-5% CO2, as previously reported (Kirshenbaum, 1993). Heart failure was induced in rats by surgical ligation of the left anterior descending coronary artery, as previously reported (Dixon et al., 1992). Non-failing sham control hearts and those with heart failure were excised from animals 8 weeks after myocardial infarction. Hearts (n=3) were dissected to remove the infarcted scar tissue, and the left ventricular free wall was homogenized and analyzed by Western blot for BNIP3 expression. Animals were handled according to guidelines established by the University of Manitoba and Canadian Council on Animal Care.
The cDNAs for BNIP3 full-length (BNIP3) and carboxyl terminal transmembrane domain deletion mutant (BNIP3ΔTM) have been described previously (Vande et al., 2000). Recombinant adenoviruses encoding the full-length BNIP3 or transmembrane deletion mutant are designated AdBNIP3 or AdBNIP3ΔTM, respectively, and generated as reported previously (Kirshenbaum et al., 1993).
Cell viability was determined using the vital dyes 2 μmol/L calcein acetoxymethyl ester (green) to determine the number of living cells and 2 μmol/L ethidium homodimer-1 (red) (Molecular Probes) to identify the number of dead cells (Kirshenbaum and Schneider, 1995). The number of green cells versus red cells was used to determine changes in cell viability (Moissac et al., 2000). Cells were analyzed from at least n=3 independent myocyte isolations counting ≧200 cells for each condition tested. Data are expressed as mean±SE percent reduction from control.

[2] = test system: mitochondrial permeability transition pore; test: mitochondrial permeability transition in ventricular myocytes, calcein-AM with cobalt chloride; format: cell-based, rat; details: Bongkrekic acid 50 μmol/L
Text: To monitor mitochondrial permeability transition (PT), ventricular myocytes were loaded with 5 μmol/L calcein-acetoxymethylester (calcein-AM, Molecular Probes) in the presence of 2 to 5 mmol/L cobalt chloride as previously reported (Gurevich et al., 2001; Petronilli et al., 1998).

BNIP3 [3] = test: BNIP3 immunohistochemistry in primary hippocampal neurons after glutamate; format: cell-based, rat; details: 100 μM glutamate
Experimental: (§1) Primary hippocampal neurons were prepared from 18-day-old embryonic Sprague-Dawley rats as described previously by Haughey, N. J. et al. (2001). Briefly, hippocampal tissue was dissociated by gentle tituration in a calcium-free Hank's balanced salt solution and was centrifuged at 1000×g. Cells were resuspended in Dulbecco's modified Eagle's medium (DMEM)/F12 nutrient mixture containing 10% heat-inactivated fetal bovine serum and 1% antibiotic solution (104 IU of penicillin G/ml, 10 mg streptomycin/ml and 25 μg amphotericin B/ml) in 0.9% NaCl (Sigma, St Louis, Mo., USA). Hippocampal neurons were plated at a density of 2×10^5 cells/ml on 12-mm diameter poly d-lysine-coated glass coverslips. Three hours after plating, the media was replaced with serum-free Neurobasal media containing 1% B-27 supplement (Gibco, Rockville, Md., USA).
For immunohistochemistry and in situ hybridization, rats were perfused transcardially with 0.9% saline and then 4% paraformaldehyde. Brains were carefully removed and post-fixed overnight in PBS containing 4% paraformaldehyde. After rinsing in PBS, the brains were placed in PBS containing 0.5 M sucrose (pH 7.3) at 4° C. until buoyancy was lost. […] Brain sections were hybridized with the probe, incubated with an alkaline phosphatase-conjugated anti-digoxigenin antibody, and labeled cells were detected with BCIP/NBT.

[4] = test system: primary hippocampal neurons; test: excitotoxic cell death of primary hippocampal neurons, trypan blue exclusion; format: cell-based, rat
Experimental: as §1
To determine the extent to which NMDA-type glutamate receptors were involved in BNIP3 expression and excitotoxic cell death, the inventors used the agonist NMDA (100 μM) in the absence or presence of the NMDA receptor antagonist MK-801 (10 μM). To determine the extent to which caspase activation contributes to BNIP3-mediated cell death, hippocampal cells were incubated in the absence or presence of the broad spectrum cell permeable caspase inhibitors z-VAD-FMK (50 μM) and BOC-D-FMK (50 μM); these inhibitors were applied 30 minutes prior to application of glutamate or NMDA. […]
In vitro cell death was estimated using trypan blue exclusion. Cells were incubated in 0.4% trypan blue solution for 30 minutes and then counted on a bright-field microscope. Nonviable cells were distinguished by their dark blue staining. To examine nuclear morphology, nuclear DNA was stained with Hoescht 33342. DNA fragmentation was detected by TUNEL using an in situ cell death detection kit with fluorescein. Statistical analyses were by ANOVA with Tukey's post-test.

BNIP3 [5] = test: intrastriatal injection in rats, BNIP3 immunohistochemistry and in situ hybridization; format: in vivo; details: rat
Experimental: Male Sprague-Dawley rats, with body weights ranging between 200 to 250 g, were obtained from the University of Manitoba Central Animal Care breeding facility. All procedures followed Canadian Council on Animal Care guidelines and were approved by the Animal Care Committee at the University of Manitoba. Animals were anesthetized with 74 mg/kg sodium pentobarbital (i.p.) and placed in a stereotaxic surgery frame. Unilateral intrastriatal injections were performed using the following coordinates (in mm); AP […], ML 3.0 and DV 4.5 (Paxinos, G. et al. (1986)). Drugs were administered over a 5 minute period in a volume of 1 μl using a 10 μl syringe fitted with a 30-gauge needle. Following injection, the needle was left in place for 5 minutes before being slowly withdrawn to allow diffusion of the drug away from the injection site. Kainic acid, dissolved in 50 mM Tris-HCl with the pH adjusted to 7.4 with NaOH, was administered at a dose of 2.5 nmol. Control rats received unilateral injections of 1 μl 50 mM Tris-HCl, pH 7.4. […]
For immunohistochemistry and in situ hybridization, rats were perfused transcardially with 0.9% saline and then 4% paraformaldehyde. […] Brain sections were hybridized with the probe, incubated with an alkaline phosphatase-conjugated anti-digoxigenin antibody, and labeled cells were detected with BCIP/NBT.

[6] = drug 2 hours prior to transfection, harvested 8 hours posttransfection, 25 and 50 mM cyclosporin A, 100 mM bongkrekic acid

## CC(=O)N[C@@H](CSC(=O)[C@]1([C@@H](O)C(C)C)NC(=O)[C@H](C)[C@@H]1O)C(=O)O [Lactacystin]
BNIP3 [1]
  degradation of the BNIP3 protein (western blot): slows the degradation

## CO[C@H](C/C=C\C=C\CC/C=C/C[C@H](C)/C=C/C(=C\C(=O)O)CC(=O)O)/C(C)=C\C=C(/C)C(=O)O [bongkrekic acid]
PT pore; Dcm suppression, ROS generation and cell death
  maximum suppression of BNIP3 effects, of that in control cells: about 50%
PT pore; drug 2 hours prior to transfection, harvested 8 hours posttransfection, 50 mM cyclosporin A, 100 mM bongkrekic acid
  cell death (PI staining) in BNIP3 transfectants: dose-dependent reversal; also recorded: significantly suppressed
PT pore; [6]
  Dcm suppression (DiOC6) in BNIP3 transfectants: dose-dependent reversal; also recorded: significantly inhibited
  ROS generation (HE fluorescence) in BNIP3 transfectants: dose-dependent reversal; also recorded: inhibited
Ventricular myocytes
  BNIP3-induced mitochondrial defects and cell death: prevented
[2]
  BNIP3-induced loss of mitochondrial calcein staining: suppressed

## N[C@@H](CCC(=O)O)C(=O)O [glutamate]
BNIP3 [3]
  cells stained positive for BNIP3: more than 50%
[4]; 10 μM glutamate for 6 hours, then Neurobasal media 24 hours
  hippocampal neurons killed: 40%
[4]; 100 μM glutamate for 6 hours, then Neurobasal media 24 hours
  cells stained positively for trypan blue: 70%
[4]; 6 hours after application, p<0.01
  neuronal cell death (trypan blue exclusion): significantly increased

## C=C(C)[C@H]1CN[C@H](C(=O)O)[C@H]1CC(=O)O [kainic acid]
BNIP3 [5]; intrastriatal 1 μl, 2.5 nmol kainic acid, 5 nmol CNQX alone or mixed with kainic acid, 48 hours
  BNIP3 expression in striatum (immunohistochemistry): observed only in those rats that received kainic acid alone
BNIP3 [5]; intrastriatal kainic acid
  levels of BNIP3 mRNA (in situ hybridization): increased
